Reference: ChEMBL document CHEMBL1156829 (Proc Natl Acad Sci U S A, 2008)
Numbered stars: 1 amine (or outer) side, 2 acyl side, 3 side chain; on linkers, the order of the positions; unused ones are H or OH. Bridge positions count the residues as written; N and C are the ends. Square brackets hold non-standard residues; d marks the D form. Peptide text beside a SMILES is read from it. I, II: the chains in the order shown. ξ: configuration not given here. Actinocin(9to1) = Cc1c2oc3c(C)ccc(C(=O)[*:1])c3nc-2c(C(=O)[*:2])c(N)c1=O; ξNMeV = CNC(C(=O)O)C(C)C; ξT = CC(O)C(N)C(=O)O; ξP = O=C(O)C1CCCN1; Sar = CNCC(=O)O

Tests used:
[1] = tested on: Plasmodium falciparum; assay: NOVARTIS: Inhibition of Plasmodium falciparum 3D7 (drug-susceptible) proliferation in erythrocyte-based infection assay; type: functional, organism-based; settings: Plasmodium falciparum, 3D7
[2] = tested on: Plasmodium falciparum; assay: NOVARTIS: Inhibition of Plasmodium falciparum W2 (drug-resistant) proliferation in erythrocyte-based infection assay; type: functional, organism-based; settings: Plasmodium falciparum, W2; read-out: EC50
[3] = NOVARTIS: Cytotoxicity against human hepatocellular carcinoma cell line (Huh7); type: toxicity, cell-based, Huh-7; settings: Huh7 cells (hepatocellular carcinoma cell line)

| SMILES | EC50 [1] | EC50 [2] | CC50 [3] |
| --- | --- | --- | --- |
| COc1cc(/C=C/c2nc(O)nc(O)c2[N+](=O)[O-])cc(Br)c1O | > 1.25 µM | > 0.987 µM | > 9.11 µM |
| CCOc1ccc2nc(C)cc(Nc3cccc(O)c3)c2c1 | 0.201 µM | 0.289 µM | 19.8 µM |
| Cn1cc(C(c2cccs2)c2cn(C)c3ccccc23)c2ccccc21 | 1.37 µM | 0.61 µM | 52.3 µM |
| CCN1CC=C2C(C#N)=C(N)C(C#N)(C#N)[C@H](c3ccc(C)s3)[C@H]2C1 | 1.68 µM | 0.464 µM | > 100 µM |
| COc1ccc(/C=C2/SC(Nc3ccc(F)cc3)=NC2=O)c(OC)c1 | 1.06 µM | 0.916 µM | > 10 µM |
| CC(=O)NC(c1ccc(N(C)C)cc1)c1cc(Cl)c2cccnc2c1O (stereo not given) | 0.651 µM | 0.0393 µM | > 100 µM |
| O=C(Nc1cccc(N2CCC(NCC3CCCCC3)CC2)c1)C1CC1 | 3.68 µM | 1.18 µM | > 100 µM |
| CN(C)c1cc[n+](Cc2c(Cl)cccc2Cl)cc1 | 0.14 µM | 0.598 µM | 0.642 µM |
| COc1ccc(OC)c(NC(=O)c2cnn3c(C(F)(F)F)cc(-c4ccc(OC)c(OC)c4)nc23)c1 | > 1.25 µM | 1.14 µM | > 10 µM |
| Nc1ccc(C(=O)Nc2ccc(-c3nc4ccccc4o3)cc2)cc1 | 0.935 µM | 0.893 µM | > 100 µM |
| CCCNC1=C(N(C(C)=O)c2ccc(C)cc2)C(=O)c2ccccc2C1=O | 0.013 µM | 0.0131 µM | 4.33 µM |
| COc1ccc(N2CCN(C(=O)C3=C(C)C(=O)OC34CCCCC4)CC2)cc1 | 1.62 µM | > 1.13 µM | > 10 µM |
| CCCOC(=O)C1=C(C)NC2=C(C(=O)CC(c3ccc(OC)c(OC)c3)C2)C1c1cccc(Cl)c1Cl (stereo not given) | 0.0484 µM | 0.0119 µM | > 100 µM |
| CCOc1ccc2nc(Sc3nc(Nc4cccc(C)c4)nc(Nc4cccc(C)c4)n3)sc2c1 | 5.81 µM | > 12.5 µM | > 100 µM |
| COc1ccc(C2CC(=O)C3=C(C2)NC(C)=C(C(=O)OC2CCCC2)C3c2cccc(C)c2)cc1OC (stereo not given) | 0.3 µM | 0.208 µM | 14.9 µM |
| CC(C)N1CCc2c(sc(NC(=O)C(C)(C)C)c2C(N)=O)C1 | 1.03 µM | 6.26 µM | 71.2 µM |
| CN(C)c1cc[n+](CC(=O)c2ccc(Cl)cc2)cc1 | 0.168 µM | 0.132 µM | > 100 µM |
| Cc1c2oc3c(C)ccc(C(=O)NC4C(=O)N[C@@H](C(C)C)C(=O)N5CCCC5C(=O)N(C)CC(=O)N(C)C(C(C)C)C(=O)OC4C)c3nc-2c(C(=O)NC2C(=O)N[C@H](C(C)C)C(=O)N3CCCC3C(=O)N(C)CC(=O)N(C)C(C(C)C)C(=O)OC2C)c(N)c1=O (stereo not given in full) (I: [ξT]V[ξP][Sar][ξNMeV] / II: [ξT][dV][ξP][Sar][ξNMeV]; ester I:1-I:C, II:1-II:C; linker I:N-II:N via Actinocin(9to1)) | 0.0259 µM | 0.0207 µM | 0.296 µM |
| Cc1[nH]n(-c2ccccc2)c(=O)c1C(=O)CN(C(=O)c1ccc2c(c1)OCO2)C(C)C | > 0.469 µM | > 1.25 µM | > 10 µM |
| CCc1ccc(N(C(=O)CCN2CCc3ccccc32)C(C(=O)NCc2ccccc2)c2ccc(OC)c(OC)c2)cc1 (stereo not given) | 5.08 µM | 4.45 µM | > 100 µM |
| Cc1cc(C)n(-c2ccc(NC(=O)C3CCN(Cc4cc(C)c(C)o4)CC3)cc2)n1 | 0.888 µM | > 1.25 µM | > 10 µM |
| CCOC(=O)C1=C(N)N(c2cccc([N+](=O)[O-])c2)C2=C(C(=O)CC(C)(C)C2)C1c1ccc(Cl)cc1 (stereo not given) | 6.14 µM | 5.55 µM | > 100 µM |
| COCCCNC(=O)C=Cc1ccc(C(C)C)cc1 | 5.94 µM | 3.58 µM | > 100 µM |
| CCN(CC)CCN(Cc1cc2ccc(C)cc2[nH]c1=O)C(=S)NC(C)c1ccccc1 (stereo not given) | 1.69 µM | 1.33 µM | 21.5 µM |
| c1ccc2c(c1)c1c(c3ccccc32)CN2CCCC2C1 (stereo not given) | 0.12 µM | 0.221 µM | > 10 µM |
